Results from patent publication US20240390369A1, “METHODS FOR DETERMINING RESPONSIVENESS TO TYK2 INHIBITORS” (Bristol-Myers Squibb Company, priority 2021, published 2024).

Legend:
β-defensin 2 (BD2) = assay: Serum β-defensin 2 level over sixteen weeks of treatment (ELISA); assay type: in vivo, human; conditions: 12 mg QD treatment arm; sixteen-week treatment period (FIG. 43B)
Protocol: Levels of proteins in serum were measured at baseline and at various points during sixteen weeks of treatment with deucravacitinib. […] Levels of BD2 in serum samples were measured by ELISA; levels of IL-19 and IL-17A in serum were each measured by ultrasensitive Simoa technology.

[1] = tested on: patients with psoriatic arthritis; assay: Phase 2 trial in psoriatic arthritis: ACR20 response at week 16; assay type: in vivo, human

## [2H]C([2H])([2H])NC(=O)c1nnc(NC(=O)C2CC2)cc1Nc1cccc(-c2ncn(C)n2)c1OC [deucravacitinib, 6-(cyclopropanecarboxamido)-4-((2-methoxy-3-(1-methyl-1H-1,2,4-triazol-3-yl)phenyl)amino)-N-(methyl-d3)pyridazine-3-carboxamide]
β-defensin 2 (BD2)
  Change from baseline in serum BD2 level, PASI75 responders versus non-responders: greater reductions in BD2 serum level were observed over time in the PASI75 responder group compared with the non-responder group
[1]; adjusted for baseline DAS28, 12 mg QD vs placebo: IL-19-high versus IL-19-low
  Interaction Term for ACR20 response (ratio of odds ratios): 7.37
[1]; adjusted for baseline DAS28, All patients, 6 mg QD vs placebo
  Odds Ratio for ACR20 response: 2.44
[1]; adjusted for baseline DAS28, BD2-high, 12 mg QD vs placebo
  Odds Ratio for ACR20 response: 7.33
[1]; adjusted for baseline DAS28, IL-17A-low, 12 mg QD vs placebo
  Odds Ratio for ACR20 response: 2.16
